Experimental data as given in patent US12460245B2, “Luciferase sequences utilizing infrared-emitting substrates to produce enhanced luminescence” (Promega Corporation, priority 2014, dated 2025).

Tests used:
[1] = molecular target: T1, QuantiLum® Recombinant Luciferase (Photinus pyralis, UniProt P08659); assay: Spectral scan using Aka Lumine as substrate; assay type: biochemical; settings: FIG. 19B
T1 construct: purchased Promega E1701
Source text: (§1) FIG. 19A and FIG. 19B illustrate the luminescence of CBR using Aka Lumine, PBI-4739 and PBI-4813 (FIG. 19A) and the spectral scan of QuantiLum® Recombinant Luciferase using Aka Lumine as substrate (FIG. 19B).

CBR = assay: Luminescence of CBR using Aka Lumine, PBI-4739 and PBI-4813; assay type: biochemical, click beetle; settings: FIG. 19A
Source text: as §1

T1 sequence (P08659 whole entry): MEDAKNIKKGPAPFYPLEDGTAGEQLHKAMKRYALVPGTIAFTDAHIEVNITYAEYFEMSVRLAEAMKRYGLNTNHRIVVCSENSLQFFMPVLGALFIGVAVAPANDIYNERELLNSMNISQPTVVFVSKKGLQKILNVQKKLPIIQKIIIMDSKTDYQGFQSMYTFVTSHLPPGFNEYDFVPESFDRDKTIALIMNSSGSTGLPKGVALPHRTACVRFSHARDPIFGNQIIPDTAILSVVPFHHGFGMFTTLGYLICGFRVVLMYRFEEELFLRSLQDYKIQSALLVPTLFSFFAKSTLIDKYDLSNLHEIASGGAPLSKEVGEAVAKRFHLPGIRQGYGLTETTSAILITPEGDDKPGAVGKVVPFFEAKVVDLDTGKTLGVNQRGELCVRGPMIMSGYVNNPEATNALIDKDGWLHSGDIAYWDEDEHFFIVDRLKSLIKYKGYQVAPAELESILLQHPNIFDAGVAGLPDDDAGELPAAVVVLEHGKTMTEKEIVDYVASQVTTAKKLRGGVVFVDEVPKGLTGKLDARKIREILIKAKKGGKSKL

## CN(C)c1ccc(/C=C/C=C/C2=N[C@@H](C(=O)O)CS2)cc1 [Aka Lumine]
[1]
  emission wavelength (less red): 675 nm
CBR
  brightness: dimmer
